Experimental data: paper PMC10780165 (Molecules, 2023)
Counter-ions that a name gives are not always drawn. Like-named read-outs stand apart in the source and are kept apart here. Marks after values point to notes of the source that are not given here.

Columns and labels:
eqBChE [1] = molecular target: T1, eqBChE (Equus caballus, UniProt P81908); details: same conditions, cited from earlier work
T1 construct: BChE (equine serum BChE (eqBChE)); purchased Sigma-Aldrich (Shanghai, PRC); host or cells: equine serum

AChE = details: cited from earlier work
[2] = molecular target: T2, elAChE (electric eel AChE) (Electrophorus electricus, UniProt O42275); details: after pre-incubation with the enzyme for 60 min; read-out: elAChE IC50 Mean ± SD; cited from earlier work
T2 construct: purchased Sigma-Aldrich (Shanghai, PRC)

eqBChE [3] = molecular target: T1, eqBChE; details: same conditions, cited from earlier work; remark: listed apart in the source
BChE = details: cited from earlier work
[4] = molecular target: T3, eqBChE (equine serum BChE) (Equus caballus, UniProt P81908); test: Modified Ellman's assay, IC50 for eqBChE; type: biochemical; details: for fold less effective eqBChE inhibitor than the meta-position derivative: para- vs meta-position carbamate: MTR-13 vs MTR-1, MTR-14 vs MTR-2, MTR-15 vs MTR-3
T3 construct: BChE (equine serum BChE (eqBChE)); purchased Sigma-Aldrich (Shanghai, PRC); host or cells: equine serum
Procedure: (§1) The inhibitory activities of the synthesized compounds on ChEs were evaluated utilizing elAChE and eqBChE.
(§2) The ChE inhibition abilities of the compounds were determined using a modified version of Ellman’s assay. All the experiments were conducted in 96-well plates, and the readings were obtained using an EnSpire Multimode 2300 plate reader (Perkin Elmer, MA, USA) or a multimode microplate reader (Berthold Technologies). elAChE, eqBChE, S-acetylthiocholine iodide (ATCh), S-butyrylthiocholine iodide (BTCh) and 5-5′-dithiobis (2-nitrobenzoic) acid (DTNB) were purchased from Sigma-Aldrich (Shanghai, PRC). ATCh and BTCh stock solutions were freshly prepared in water. A stock solution of DTNB (Ellman’s reagent) was prepared fresh in a sodium phosphate buffer (100 mM, pH 7, 0.15% NaHCO3 w/v). Stock solutions of drugs were prepared in a solution of acetonitrile and water (v:v = 1:9). The pH for the measurements was 8.
(§3) First, 25 μL aliquots of drug solutions at different concentrations were added to 200 μL of elAChE (0.04 U/mL) or eqBChE (0.1 U/mL) in a phosphate buffer (100 mM sodium phosphate buffer, pH 8), and the reaction system was pre-incubated at 37 °C for determined time periods. Then, 25 μL of a solution containing ATCh or BTCh (2.5 mM) and DTNB (3.4 mM) in the 100 mM sodium phosphate buffer was added to the reactions. Enzyme activity (vi) was determined by measuring the absorbance (412 nm) at 37 °C for 5 min. […] A sample containing phosphate buffer (pH 8) in place of the enzyme was analyzed for each drug concentration to account for the spontaneous conversion of the substrate into a product, and the values obtained were subtracted from each measured activity.
(§4) This method was based on the general measurement of ChE activity. […] The measurements were repeated three times for each concentration.

[5] = molecular target: T2, elAChE (electric eel AChE); test: biochemical
Procedure: as §1, §2, §3, §4

eqBChE [6] = molecular target: T1, eqBChE; test: Kinetic study of eqBChE inhibition, carbamylation rate constant kI; type: biochemical, equine; details: pre-incubation 1-45 min, seven concentrations, read-out: kI, second-order carbamylation rate constant, Mean ± SD (converted)
Procedure: as §3

eqBChE [7] = molecular target: T1, eqBChE; test: Decarbamylation rate constant k3 of carbamylated eqBChE; type: biochemical, equine
[8] = after pre-incubation with the enzyme for 60 min, 37 °C, pH 8, read-out: eqBChE IC50 Mean ± SD
[9] = elAChE IC50 Mean ± SD, after pre-incubation with the enzyme for 60 min, 37 °C, pH 8
[10] = after pre-incubation with the enzyme for 60 min, 37 °C, pH 8, read-out: elAChE IC50 Mean ± SD

T1 sequence (P81908 whole entry): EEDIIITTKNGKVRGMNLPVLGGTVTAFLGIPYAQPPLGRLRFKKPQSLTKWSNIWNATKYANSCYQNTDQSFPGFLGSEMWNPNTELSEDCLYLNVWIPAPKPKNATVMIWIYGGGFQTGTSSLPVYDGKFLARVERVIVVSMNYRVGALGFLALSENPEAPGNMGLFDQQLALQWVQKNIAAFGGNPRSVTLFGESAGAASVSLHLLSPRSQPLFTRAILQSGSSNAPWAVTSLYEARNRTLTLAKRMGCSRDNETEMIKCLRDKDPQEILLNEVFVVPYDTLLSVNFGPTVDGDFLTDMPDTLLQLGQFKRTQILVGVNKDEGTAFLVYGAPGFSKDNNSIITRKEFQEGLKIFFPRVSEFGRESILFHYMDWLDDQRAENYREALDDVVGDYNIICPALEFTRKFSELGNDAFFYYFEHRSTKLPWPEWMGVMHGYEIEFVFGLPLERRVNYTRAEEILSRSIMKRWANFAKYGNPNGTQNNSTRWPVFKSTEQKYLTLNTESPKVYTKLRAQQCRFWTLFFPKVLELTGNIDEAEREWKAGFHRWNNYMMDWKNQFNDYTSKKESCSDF
T3 sequence (P81908 whole entry): as above
T2 sequence (O42275 24-633): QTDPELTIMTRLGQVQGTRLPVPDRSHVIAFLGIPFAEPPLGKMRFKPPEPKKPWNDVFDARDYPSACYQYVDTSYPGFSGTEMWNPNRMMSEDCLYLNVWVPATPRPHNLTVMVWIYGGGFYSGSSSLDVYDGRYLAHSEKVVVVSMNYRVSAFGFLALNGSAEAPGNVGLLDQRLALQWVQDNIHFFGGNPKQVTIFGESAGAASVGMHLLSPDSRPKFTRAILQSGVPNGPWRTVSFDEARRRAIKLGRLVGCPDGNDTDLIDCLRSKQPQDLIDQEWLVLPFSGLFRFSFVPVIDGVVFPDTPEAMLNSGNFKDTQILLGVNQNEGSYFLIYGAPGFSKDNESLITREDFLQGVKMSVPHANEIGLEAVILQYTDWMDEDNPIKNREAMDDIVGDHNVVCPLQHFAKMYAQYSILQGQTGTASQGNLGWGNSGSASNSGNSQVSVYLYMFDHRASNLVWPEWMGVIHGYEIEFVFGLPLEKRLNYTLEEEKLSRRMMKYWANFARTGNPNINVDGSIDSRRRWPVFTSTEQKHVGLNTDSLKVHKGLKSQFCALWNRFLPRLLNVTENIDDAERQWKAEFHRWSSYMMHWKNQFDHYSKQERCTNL

CN(C)C(=O)Oc1cc(OC(=O)N(C)C)cc(C(O)CNC(C)(C)C)c1 (stereo not shown) [Bambuterol]
k3, decarbamylation rate constant, Mean ± SD (eqBChE [1]; listed as bambuterol): 0.0839 ± 0.0028 h⁻¹ | k3, decarbamylation rate constant, Mean ± SD (eqBChE [1]): 0.0839 ± 0.0028 ^a ×h^−1 | IC50 (AChE): 30000 nM | IC50 [2]: > 100000 nM | kI (kI1), carbamylation rate constant, Mean ± SD (eqBChE [3]; listed as bambuterol): 1.44 ± 0.02 ×10^5 M^−1 min^−1 | kI (kI1), carbamylation rate constant, Mean ± SD (eqBChE [3]): 1.44 ± 0.02 ^a ×10^5 M^−1 min^−1 | IC50 (BChE): 3 nM

CCN(C)C(=O)Oc1cccc(C(O)CNC(C)(C)C)c1 (stereo not shown) [MTR-1, 3-(2-(Tert-butylamino)-1-hydroxyethyl)phenyl ethyl(methyl)carbamate Hydrochloride]
IC50 [4, 8]: 370 ± 20 nM | IC50 [5, 9]: > 100000 nM

CCN(C)C(=O)Oc1cccc(C(O)CNC(C)(C)CC)c1 (stereo not shown) [MTR-2, 3-(1-Hydroxy-2-(tert-pentylamino)ethyl)phenyl Ethyl(methyl)carbamate hydrochloride]
IC50 [4, 8]: 170 ± 10 nM | IC50 [5, 9]: > 100000 nM

CCN(C)C(=O)Oc1cccc(C(O)CN2CCCCC2)c1 (stereo not shown) [MTR-3, 3-(1-Hydroxy-2-(piperidin-1-yl)ethyl)phenyl Ethyl(methyl)carbamate]
kinact/KI (eqBChE [6]): 4630 M⁻¹ s⁻¹ | IC50 ([4]; as printed in nM in abstract and text, read-out: IC50(BChE)): 78 nM | IC50 [5, 10]: > 100000 nM | IC50 ([5]; read-out: IC50(AChE)): > 100000 nM | nature of BChE inhibition (eqBChE [7]; activity recovery after dilution): pseudo-irreversible | k3, decarbamylation rate constant, Mean ± SD (eqBChE [7]; eqBChE, N-methyl-N-ethyl-carbamylated, dilution 1:300, 37 °C, pH 8): 0.0093 ± 0.0010 h⁻¹

CCN(C)C(=O)Oc1cccc(C(O)CNC2CCCCC2)c1 (stereo not shown) [MTR-4, 3-(2-(Cyclohexylamino)-1-hydroxyethyl)phenyl Ethyl(methyl)carbamate]
IC50 [4, 8]: 9 ± 0.4 nM | IC50 [5, 10]: 79000 ± 4000 nM

CCN(C)C(=O)Oc1cccc(C(O)CNC2CCCC2)c1 (stereo not shown) [MTR-5, 3-(2-(Cyclopentylamino)-1-hydroxyethyl)phenyl Ethyl(methyl)carbamate]
IC50 [4, 8]: 74 ± 5 nM | IC50 [5, 10]: 92000 ± 7000 nM

CCN(C)C(=O)Oc1cccc(C(O)CN2CCOCC2)c1 (stereo not shown) [MTR-6, 3-(1-Hydroxy-2-morpholinoethyl)phenyl Ethyl(methyl)carbamate]
IC50 [4, 8]: 2500 ± 200 nM | IC50 [5, 10]: > 100000 nM

CCN(C)C(=O)Oc1cccc(C(O)CN2CCCC2)c1 (stereo not shown) [MTR-7, 3-(1-Hydroxy-2-(pyrrolidin-1-yl)ethyl)phenyl Ethyl(methyl)carbamate]
IC50 [4, 8]: 210 ± 10 nM | IC50 [5, 10]: 78900 ± 900 nM

CCN(C)C(=O)Oc1cccc(C(O)CNc2ccccc2)c1 (stereo not shown) [MTR-8, 3-(1-Hydroxy-2-(phenylamino)ethyl)phenyl Ethyl(methyl)carbamate]
IC50 [4, 8]: 320 ± 20 nM | IC50 [5, 10]: > 100000 nM

CCN(C)C(=O)Oc1cccc(C(O)CNc2ccc(I)cc2)c1 (stereo not shown) [MTR-9, 3-(1-Hydroxy-2-((4-iodophenyl)amino)ethyl)phenyl Ethyl(methyl)carbamate]
IC50 [4, 8]: 1730 ± 50 nM | IC50 [5, 10]: > 100000 nM

CCN(C)C(=O)Oc1cccc(C(O)CNc2ccc(F)cc2)c1 (stereo not shown) [MTR-10, 3-(2-((4-Fluorophenyl)amino)-1-hydroxyethyl)phenyl Ethyl(methyl)carbamate]
IC50 [4, 8]: 192 ± 7 nM | IC50 [5, 10]: > 100000 nM

CCN(C)C(=O)Oc1cccc(C(O)CNC(C)(C)c2ccccc2)c1 (stereo not shown) [MTR-11, 3-(1-Hydroxy-2-((2-phenylpropan-2-yl)amino)ethyl)phenyl Ethyl(methyl)carbamate]
IC50 [4, 8]: 323 ± 8 nM | IC50 [5, 10]: > 100000 nM

C#Cc1cccc(NCC(O)c2cccc(OC(=O)N(C)CC)c2)c1 (stereo not shown) [MTR-12, 3-(2-((3-Ethynylphenyl)amino)-1-hydroxyethyl)phenyl Ethyl(methyl)carbamate]
IC50 [4, 8]: 156 ± 7 nM | IC50 [5, 10]: > 100000 nM

CCN(C)C(=O)Oc1ccc(C(O)CNC(C)(C)C)cc1 (stereo not shown) [MTR-13, 4-(2-(Tert-butylamino)-1-hydroxyethyl)phenyl Ethyl(methyl)carbamate]
IC50 [4, 8]: 8700 ± 300 nM | fold less effective eqBChE inhibitor than the meta-position derivative [4]: 22 fold | IC50 [5, 10]: > 100000 nM

CCN(C)C(=O)Oc1ccc(C(O)CNC(C)(C)CC)cc1 (stereo not shown) [MTR-14, 4-(1-Hydroxy-2-(tert-pentylamino)ethyl)phenyl Ethyl(methyl)carbamate]
IC50 [4, 8]: 1700 ± 100 nM | fold less effective eqBChE inhibitor than the meta-position derivative [4]: ninefold | IC50 [5, 10]: > 100000 nM

CCN(C)C(=O)Oc1ccc(C(O)CN2CCCCC2)cc1 (stereo not shown) [MTR-15, 4-(1-Hydroxy-2-(piperidin-1-yl)ethyl)phenyl Ethyl(methyl)carbamate]
IC50 [4, 8]: 420 ± 20 nM | IC50 [5, 10]: 59000 ± 16000 nM
